From patent publication US20220323521A1, “Compositions and Uses for Engineered Therapeutic Microbes and Associated Receptors” (The Brigham and Women`s Hospital, Inc., priority 2019, published 2022)

How the values were obtained:
[1] = test system: human P2Y2 receptor; experiment: Flow cytometry evaluation of response to ATP and UTP (pFUS1-mCherry mating pathway reporter in yeast strain BS016); format: cell-based; conditions: for Follow-up Test Results: response/sensitivity to ATP versus WT, post-sorting follow-up; for ATP Linear Range μM / ATP Max Response (±SE) / ATP Dynamic Range / ATP Linear Range: ligand eATP; for ATP Max Response (±SE) / UTP Max Response (±SE): normalized to maximum mating pathway activation by WT human P2Y2 receptor with eATP; for ATP Dynamic Range / UTP Dynamic Range: ratio of highest fluorescence versus 10% signal saturation; for UTP Max Response (±SE): unit assumed; for signaling in the absence of agonist (constitutive activity): no agonist
Method: (§1) Flow cytometry evaluation of response to ATP and UTP. Yeast strain BS016 transformed with a human P2Y2 gene in the pRS316 pTDH3 vector was grown in SC-URA liquid media overnight. The same strain transformed with a plasmid not containing a P2Y2 sequence (Vector) was used as a negative control. Cells were diluted to OD600 0.05 in 600 μL SC-URA containing ATP (0-25.6 mM; pH 7.0, Bio Basic) or UTP (0-3.2 mM; pH 7.0, Sigma-Aldrich) and incubated for 6 hours at 30° C. Cells were then treated with cycloheximide to a final concentration of 10 μg/mL. The mCherry signal of at least 10,000 cells was measured for each sample with a Miltenyi Biotec MACSQuant VYB. The mean mCherry fluorescence was determined using FlowJo. For dose-response assays, data was fitted with the “log(agonist) vs. response—Variable slope (four parameters)” model in Prism (GraphPad). After subtracting the mCherry fluorescence signal of the Vector control, fluorescence values were normalized to the wild-type P2Y2 control used in the same experiment, to allow comparisons between experiments performed on different days.
(§2) Directed evolution of human P2Y2 receptor. Error-prone PCR mutagenesis was performed using the Agilent GeneMorph II Random Mutagenesis Kit with yeast codon-optimized human P2Y2 as a template, using previously described methods (104). 150 ng of template DNA and 30 cycles achieved the desired mutation rate of ˜3 mutations per P2Y2 gene, determined by sequencing 12 randomly selected plasmids (Table 2). The random mutants were inserted into pRS316 pTDH3 using AarI-based cloning and transformed into NEB 5-alpha competent E. coli cells (New England Biolabs) generating >15,000 individual colonies. Cells were scraped off agar plates, mixed together, and plasmid DNA was extracted (QIAQuick Spin Miniprep Kit, Qiagen) to create the final plasmid library. The library was transformed into yeast strain BS016 using a high-efficiency lithium acetate-based method (105), yielding at least 10-fold the number of colonies as the total library size, so that each mutant would be screened multiple times. Transformed cells were incubated overnight, then diluted to OD600 0.05 into fresh 100 mL SC-URA liquid media containing 100 μM ATP (pH 7.0, Biobasic), and incubated for either 18 or 6 hours at 30° C. (FIG. 8). After brief sonication, 10^6-10^7 cells were gated by side and forward scatter and sorted for the highest ˜1% of mCherry signal using a BD Influx cell sorter (106). A total of 174 yeast colonies recovered from various sorting experiments were individually screened for their response to 100 μM UTP, 100 μM ATP, or with no ligand, after a 6-hour incubation. Plasmids were isolated from selected colonies by first incubating with zymolase (BioShop Canada) then extracting plasmid DNA (QIAQuick Spin Miniprep Kit, Qiagen). Plasmid DNA was amplified using NEB 5-alpha competent E. coli cells (New England Biolabs), the plasmid DNA was sequenced, and fresh BS016 yeast cells were transformed for dose-response experiments.
(§3) Maximum response values were normalized to the maximum mating pathway activation provided by the WT human P2Y2 receptor incubated with eATP. Dynamic range was the ratio of the highest fluorescence obtained in the presence of the indicated ligand versus 10% signal saturation. Linear range was the series of ligand concentrations for which a change in signal can be detected. The minimum limit of the linear range was estimated as the ligand concentration corresponding to 10% signal saturation. Data represents the mean of six colonies for eATP, three colonies for eUTP.

[2] = target: T1, human P2Y2 receptor (Homo sapiens, UniProt P41231); experiment: as above; format: cell-based; conditions: for EC50: agonist on WT human P2Y2 in Gpa1-Gαi3 pFUS1-mCherry strain
T1 construct: expressed in transfected cells; host or cells: Saccharomyces cerevisiae strain BS016 (Gpa1-Gαi3 chimera, pFUS1-mCherry reporter), plasmid pRS316 pTDH3
T1 sequence (P41231 whole entry): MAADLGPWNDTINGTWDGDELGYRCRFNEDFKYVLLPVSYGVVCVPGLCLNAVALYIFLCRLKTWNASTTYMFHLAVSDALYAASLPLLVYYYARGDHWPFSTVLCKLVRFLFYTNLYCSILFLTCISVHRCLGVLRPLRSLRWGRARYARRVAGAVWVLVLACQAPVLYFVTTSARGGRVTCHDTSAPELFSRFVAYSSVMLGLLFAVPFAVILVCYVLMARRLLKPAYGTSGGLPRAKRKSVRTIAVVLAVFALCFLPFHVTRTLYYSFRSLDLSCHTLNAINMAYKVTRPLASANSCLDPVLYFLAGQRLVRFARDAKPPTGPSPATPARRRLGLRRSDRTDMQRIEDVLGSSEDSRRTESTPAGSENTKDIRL
Method: as §1, §2, §3

[3] = ligand concentrations for which a change in signal can be detected
[4] = ligand eUTP, ligand concentrations for which a change in signal can be detected

| Molecule | Follow-up Test Results [1] | EC50 [2] [µM] | ATP Linear Range μM [1, 3] | ATP Max Response (±SE) [1] [%] | ATP Dynamic Range [1] | UTP Linear Range [1, 4] [µM] | UTP Max Response (±SE) ([1]; ligand eUTP) [%] | UTP Dynamic Range ([1]; ligand eUTP) | ATP Linear Range [1, 3] [µM] | signaling in the absence of agonist (constitutive activity) [1] | UTP Linear Range μM [1, 4] | response to 100 μM eATP (mCherry expression) ([2]; 100 μM eATP) |
| --- | --- | --- | --- | --- | --- | --- | --- | --- | --- | --- | --- | --- |
| 6R1-2: human P2Y2 receptor mutant I214T [Mutant 6R1-2] | No different than WT, not selected for | – | – | – | – | – | – | – | – | – | – | – |
| 18R2-2: human P2Y2 receptor mutant L112S A176V [Mutant 18R2-2] | No different than WT, not selected for | – | – | – | – | – | – | – | – | – | – | – |
| 18R2-23: human P2Y2 receptor mutant V250A [Mutant 18R2-23] | No different than WT, not selected for | – | – | – | – | – | – | – | – | – | – | – |
| Nc1ncnc2c1ncn2[C@@H]1O[C@H](COP(=O)(O)OP(=O)(O)OP(=O)(O)O)[C@@H](O)[C@H]1O [eATP, adenosine triphosphate, reference compound] | – | 1860 | – | – | – | – | – | – | – | – | – | – |
| O=c1ccn([C@@H]2O[C@H](COP(=O)(O)OP(=O)(O)OP(=O)(O)O)[C@@H](O)[C@H]2O)c(=O)[nH]1 [eUTP, uridine triphosphate, reference compound] | – | 123 | – | – | – | – | – | – | – | – | – | – |
| H1-2: human P2Y2 receptor mutant F58L [Mutant H1-2] | – | – | 4-4,966 μM | 122 | 9 | 0.05 to 22 | 101 | 6 | – | – | – | – |
| H1-3: human P2Y2 receptor mutant F58I [Mutant H1-3] | – | – | 4-3,945 μM | 152 | 10 | 0.4 to 550 | 122 | 8 | – | – | – | – |
| H1-4: human P2Y2 receptor mutant F58L S359P [Mutant H1-4] | – | – | 5-3,882 μM | 110 | 9 | 0.2 to 61 | 96 | 7 | – | – | – | – |
| H7-1: human P2Y2 receptor mutant K240N F307S [Mutant H7-1] | – | – | – | 181 | 3 | 0.02 to 3.1 | 199 | 3 | 0.3 to 18 | increased responsiveness and signaling in the absence of agonist (constitutive activity) | – | – |
| TM-2: human P2Y2 receptor mutant L59I C119S | – | – | 3-2,243 μM | 165 | 9 | 0.9 to 169 | 143 | 8 | – | – | – | – |
| TM-3: human P2Y2 receptor mutant N116S | – | – | – | 110 | 5 | 0.04 to 63 | 86 | 5 | 0.9 to 284 | increased responsiveness and signaling in the absence of agonist (constitutive activity) | – | – |
| TM-4: human P2Y2 receptor mutant L162I Q165H | – | – | 0.5-8,950^ μM | 137 | 10 | 0.07 to 31 | 69 | 7 | – | – | – | – |
| WT: wild-type human P2Y2 receptor (NP_002555.4), yeast codon-optimized [reference compound] | – | – | 113-25,600 μM | 100 | 8 | – | 98 | 9 | – | – | 4-1,374 μM | weak response |
| H7-2: human P2Y2 receptor mutant A76T A229V F307S (protein, UniProt P41231 1-377, looked up, variant A76T A229V F307S) P2Y purinoceptor 2: MAADLGPWNDTINGTWDGDELGYRCRFNEDFKYVLLPVSYGVVCVPGLCLNAVALYIFLCRLKTWNASTTYMFHLTVSDALYAASLPLLVYYYARGDHWPFSTVLCKLVRFLFYTNLYCSILFLTCISVHRCLGVLRPLRSLRWGRARYARRVAGAVWVLVLACQAPVLYFVTTSARGGRVTCHDTSAPELFSRFVAYSSVMLGLLFAVPFAVILVCYVLMARRLLKPVYGTSGGLPRAKRKSVRTIAVVLAVFALCFLPFHVTRTLYYSFRSLDLSCHTLNAINMAYKVTRPLASANSCLDPVLYSLAGQRLVRFARDAKPPTGPSPATPARRRLGLRRSDRTDMQRIEDVLGSSEDSRRTESTPAGSENTKDIRL | – | – | – | 90 | 2 | 0.01 to 6 | 84 | 3 | 0.3 to 23 | increased responsiveness and signaling in the absence of agonist (constitutive activity) | – | – |
| H1-1: human P2Y2 receptor mutant F58C C60Y G310A (protein, UniProt P41231 1-377, looked up, variant F58C C60Y G310A) P2Y purinoceptor 2: MAADLGPWNDTINGTWDGDELGYRCRFNEDFKYVLLPVSYGVVCVPGLCLNAVALYICLYRLKTWNASTTYMFHLAVSDALYAASLPLLVYYYARGDHWPFSTVLCKLVRFLFYTNLYCSILFLTCISVHRCLGVLRPLRSLRWGRARYARRVAGAVWVLVLACQAPVLYFVTTSARGGRVTCHDTSAPELFSRFVAYSSVMLGLLFAVPFAVILVCYVLMARRLLKPAYGTSGGLPRAKRKSVRTIAVVLAVFALCFLPFHVTRTLYYSFRSLDLSCHTLNAINMAYKVTRPLASANSCLDPVLYFLAAQRLVRFARDAKPPTGPSPATPARRRLGLRRSDRTDMQRIEDVLGSSEDSRRTESTPAGSENTKDIRL | – | – | – | 149 | 5 | 0.05 to 12 | 128 | 4 | 0.5 to 184 | – | – | – |
| 18R2-18: human P2Y2 receptor mutant W16R V90A A295V (protein, UniProt P41231 1-377, looked up, variant W16R V90A A295V) P2Y purinoceptor 2: MAADLGPWNDTINGTRDGDELGYRCRFNEDFKYVLLPVSYGVVCVPGLCLNAVALYIFLCRLKTWNASTTYMFHLAVSDALYAASLPLLAYYYARGDHWPFSTVLCKLVRFLFYTNLYCSILFLTCISVHRCLGVLRPLRSLRWGRARYARRVAGAVWVLVLACQAPVLYFVTTSARGGRVTCHDTSAPELFSRFVAYSSVMLGLLFAVPFAVILVCYVLMARRLLKPAYGTSGGLPRAKRKSVRTIAVVLAVFALCFLPFHVTRTLYYSFRSLDLSCHTLNAINMAYKVTRPLVSANSCLDPVLYFLAGQRLVRFARDAKPPTGPSPATPARRRLGLRRSDRTDMQRIEDVLGSSEDSRRTESTPAGSENTKDIRL | inconsistent results | – | – | – | – | – | – | – | – | – | – | – |
